# Experimental data as given in patent publication US20170029355A1, “LABILE ESTERS OF AGROCHEMICALS FOR CONTROLLED RELEASE AND REDUCTION OF OFF-SITE MOVEMENT” (Monsanto Technology LLC, priority 2011, published 2017).
# Assays:
# [1] = Photolysis / cleavage of the esters to dicamba (statements of the description); format: physicochemical; conditions: qualitative
# From the text: The efficacy of the photolabile esters can be assayed in vitro, or in greenhouse or field experiments. A useful in vitro assay for post-emergent activity involves photolysis of a dilute solution of the esters using simulated sunlight. This is conveniently achieved by photolysis of a solution of the ester in an organic solvent which is miscible with water and to which some water has been added. As described in the Examples, photolysis in acetonitrile or tetrahydrofuran containing 10% water by weight is effective. Low concentrations of the ester should be used so that the entire volume is exposed to sunlight. Since the maximum extinction coefficient of the typical esters above 220 nm is in the range of 1000-10,000 M^−1 cm^−1, a concentration of 0.1 mM is effective. Photolysis in a quartz tube exposed to simulated or actual sunlight is a typical protocol.
# [2] = tested on: velvetleaf; test: Greenhouse post-emergent control of velvetleaf by emulsifiable concentrates (Example 30); format: in vivo
# Method: (§1) The efficacy of some photo-labile ester formulations from Example 28 for post-emergent control of velvetleaf was tested in the greenhouse. All formulations were tested at rates of 140, 280, 420, and 560 g dicamba equivalent per hectare rates and compared to the diglycolamine salt of dicamba (CLARITY®) at the same rates and untreated control plants. The velvetleaf plants were 10-15 cm in height at the time of spraying. Percent control was evaluated three weeks after treatment.
# The methodology of Example 29 was used to evaluate the efficacy of several photo-labile esters of dicamba for post-emergent control of velvetleaf as emulsifiable concentrate formulations described in Example 28.
# [3] = Solubility of the esters (statements of the description); format: physicochemical; conditions: qualitative
# [4] = tested on: velvetleaf; test: Field testing of emulsifiable concentrates, post-emergent control (Example 40); format: in vivo
# Method: (§2) Three dicamba esters, 30a, 32a, and 36a, were formulated as emulsifiable concentrates for field testing. All surfactants are commercial materials from Stepan.
# (§3) The formulations were tested in the field. Locations and timing were identical for the three esters, but differed slightly for the diglycolamine control. The esters were compared to the diglycolamine salt of dicamba (CLARITY™) for post-emergent control of three broadleaf weeds: velvetleaf, morning glory, and hemp sesbania. Rates of 280 and 560 g dicamba acid equivalent per hectare were used.
# [5] = tested on: morning glory; test: as above; format: in vivo
# Method: as §2, §3
# [6] = tested on: hemp sesbania; test: as above; format: in vivo
# Method: as §2, §3
# [7] = In vitro photo-release and hydrolytic release of dicamba in an aqueous medium (Example 36); format: physicochemical; conditions: 0.01 mM (0.005 mM for diesters)
# Method: This Example describes the determination of photo-lability and hydrolytic lability of dicamba esters in an aqueous medium. 1 mM solutions of the esters were prepared in acetonitrile (or […] solutions of dicamba diesters). The solutions were then diluted with deionized water to a concentration of 0.01 mM (or 0.005 mM for diesters). The solutions were then transferred to quartz tubes and amber bottles and held in a growth chamber by the procedure of Example 26. A 14-hour day was generally used at a constant temperature of 35° C. Hydrolytic activity was assessed by measuring the increase in dicamba concentration after day zero in the amber (dark) bottles. […] Photolysis manifested itself as increased conversion in the quartz tubes compared to the dark control.
# This Example provides the results of an aqueous lability test following the protocol of Example 35 for several dicamba esters which convert to dicamba primarily by hydrolysis. As shown by the results in the table below, conversion of the dark controls generally equaled or exceeded conversion in the photolysis solutions.
# [8] = tested on: velvetleaf; test: Greenhouse post-emergent control of velvetleaf by emulsifiable concentrates (Example 37); format: in vivo; conditions: Abutilon theophrasti, post-emergence, 504 h, greenhouse, Example 37
# Method: as §1
# The methodology of Example 29 was used to evaluate the efficacy of several esters of dicamba which convert to dicamba by hydrolysis for post-emergent control of velvetleaf as emulsifiable concentrate formulations.
# [9] = tested on: broadleaf weeds; test: Control of broadleaf weeds by ester concentrates (statements of the description); format: in vivo; conditions: emulsifiable and suspension concentrates; Sesbania macrocarpa, morning glory, velvetleaf, Palmer amaranth, fat hen, sicklepod
# [10] = In vitro dicamba photo-release from photo-labile dicamba esters, tetrahydrofuran solvent (Example 26); format: physicochemical; conditions: THF, 0.1 mM ester
# Method: (§4) This Example describes in vitro testing of dicamba photo-release by homogeneous solutions of photo-labile dicamba esters. The esters were dissolved in tetrahydrofuran (THF). Ester concentration was 0.1 mM. 25 ml of the solution was transferred to 22 mm tubes fabricated from graded seal quartz tubing with a 19/22 tapered seal at the top, which was closed with a tapered glass plug and secured with a plastic ring clamp. The solution was entirely below the quartz-to-glass transition, ensuring that the entire volume was exposed to the full spectrum.
# (§5) The sealed tubes were placed in a Growth Chamber where they were exposed to simulated sunlight for 14 hours per day at 35° C. Dicamba concentrations in the solution were measured during the course of the photolysis.
# (§6) A sample of the initial solution was reserved in a glass vial away from the light source and analyzed at the conclusion of the study, providing a measurement of the amount of dicamba present without illumination of the photolysis solution (the “dark control”).
# [11] = tested on: velvetleaf; test: Greenhouse post-emergent control of velvetleaf by emulsifiable concentrates (Example 29); format: in vivo; conditions: three weeks after treatment
# Method: as §1
# [12] = In vitro dicamba photo-release from photo-labile dicamba esters, acetonitrile/10% water solvent (Example 27); format: physicochemical; conditions: acetonitrile containing 10% water
# Method: as §4, §5, §6
# This Example is another photolysis of photo-labile dicamba esters, but using acetonitrile containing 10% water by weight as the solvent. The experimental protocol is otherwise the same as in Example 18.
# [13] = 280 g dicamba acid equivalent per hectare
# [14] = 560 g dicamba acid equivalent per hectare
structure (smiles),measurement,setting,value
COc1c(Cl)ccc(Cl)c1C(=O)OCCOc1ccccc1[N+](=O)[O-] [Ester 3],"photolysis / photo-release of dicamba, in words",[1],the rate of photolysis decreases
same,"% Control of velvetleaf, 140 g/ha",[2],36%
same,"% Control of velvetleaf, 280 g/ha",[2],57%
same,"% Control of velvetleaf, 420 g/ha",[2],40%
same,"% Control of velvetleaf, 560 g/ha",[2],43%
COc1c(Cl)ccc(Cl)c1C(=O)Oc1c(C)cc(C)cc1C(C)(C)C [Ester 21],"photolysis / photo-release of dicamba, in words",[1],undergo photo-release of dicamba in vitro
"COc1c(Cl)ccc(Cl)c1C(=O)OCc1cccc([N+](=O)[O-])c1 [Ester 1c, 3-nitrobenzyl ester of dicamba]","photolysis / photo-release of dicamba, in words",[1],slower and less efficient photolysis than the 2-nitrobenzyl ester
"COc1cc(COC(=O)c2c(Cl)ccc(Cl)c2OC)c([N+](=O)[O-])cc1OC [Ester 1b, 6-nitroveratryl ester of dicamba]","solubility, in words",[3],significantly less soluble than 1a
COc1c(Cl)ccc(Cl)c1C(=O)Oc1nc(C(C)(C)C)cc(C(C)(C)C)c1C#N [Ester 36a],"% control 19 days after treatment, 280 g/ha, Velvetleaf",[4]; [13],72 ± 25%
same,"% control 19 days after treatment, 560 g/ha, Velvetleaf",[4]; [14],84 ± 26%
same,"% control 19 days after treatment, 280 g/ha, Morning glory",[5]; [13],83 ± 4%
same,"% control 19 days after treatment, 560 g/ha, Morning glory",[5]; [14],93 ± 5%
same,"% control 19 days after treatment, 280 g/ha, Hemp sesbania",[6]; [13],82 ± 10%
same,"% control 19 days after treatment, 560 g/ha, Hemp sesbania",[6]; [14],98 ± 2%
same,"Conversion to Dicamba, Dark, Day 0","[7]; amber (dark) bottle, Day 0",20%
same,"Conversion to Dicamba, Dark, Day 1","[7]; amber (dark) bottle, Day 1",59%
same,"Conversion to Dicamba, Dark, Day 2","[7]; amber (dark) bottle, Day 2",61%
same,"Conversion to Dicamba, Dark, Day 3","[7]; amber (dark) bottle, Day 3",60%
same,"Conversion to Dicamba, Dark, Day 4","[7]; amber (dark) bottle, Day 4",60%
same,"Conversion to Dicamba, Dark, Day 7","[7]; amber (dark) bottle, Day 7",65%
same,"Conversion to Dicamba, Dark, Day 21","[7]; amber (dark) bottle, Day 21",66%
same,"Conversion to Dicamba, Light, Day 0","[7]; quartz tube, Day 0",20%
same,"Conversion to Dicamba, Light, Day 1","[7]; quartz tube, Day 1",57%
same,"Conversion to Dicamba, Light, Day 2","[7]; quartz tube, Day 2",60%
same,"Conversion to Dicamba, Light, Day 3","[7]; quartz tube, Day 3",58%
same,"Conversion to Dicamba, Light, Day 4","[7]; quartz tube, Day 4",59%
same,"Conversion to Dicamba, Light, Day 7","[7]; quartz tube, Day 7",63%
same,"Conversion to Dicamba, Light, Day 21","[7]; quartz tube, Day 21",65%
same,pest or weed control at 140 g/ha,"[8]; 140 g/ha, read-out: % Control of velvetleaf, 140 g/ha",15.8%
same,pest or weed control at 280 g/ha,"[8]; 280 g/ha, read-out: % Control of velvetleaf, 280 g/ha",26.7%
same,pest or weed control at 420 g/ha,"[8]; 420 g/ha, read-out: % Control of velvetleaf, 420 g/ha",32.5%
same,pest or weed control at 560 g/ha,"[8]; 560 g/ha, read-out: % Control of velvetleaf, 560 g/ha",66.7%
same,"control of a number of broadleaf weeds in field testing, in words",[9],proven effective
"CCCCOc1ccc(C(=O)COC(=O)c2c(Cl)ccc(Cl)c2OC)cc1 [Ester 10, p-n-Butoxyphenacylmethyl Ester of Dicamba]",Dark Control % dicamba,"[10]; initial solution kept away from the light source, analyzed at conclusion of study",8%
same,"Conversion to dicamba, 1 day","[10]; simulated sunlight 14 hours per day, 35° C., 1 day",16%
same,"Conversion to dicamba, 2 days","[10]; simulated sunlight 14 hours per day, 35° C., 2 days",15%
same,"Conversion to dicamba, 3 days","[10]; simulated sunlight 14 hours per day, 35° C., 3 days",16%
same,"Conversion to dicamba, 5 days","[10]; simulated sunlight 14 hours per day, 35° C., 5 days",19%
same,"Conversion to dicamba, 7 days","[10]; simulated sunlight 14 hours per day, 35° C., 7 days",20%
same,"Conversion to dicamba, 9 days","[10]; simulated sunlight 14 hours per day, 35° C., 9 days",29%
same,"Conversion to dicamba, 12 days","[10]; simulated sunlight 14 hours per day, 35° C., 12 days",35%
same,"Conversion to dicamba, 15 days","[10]; simulated sunlight 14 hours per day, 35° C., 15 days",35%
same,"% Control of velvetleaf, 140 g/ha",[11]; 140 g dicamba equivalent per hectare,23%
same,"% Control of velvetleaf, 280 g/ha",[11]; 280 g dicamba equivalent per hectare,33%
same,"% Control of velvetleaf, 420 g/ha",[11]; 420 g dicamba equivalent per hectare,28%
same,"% Control of velvetleaf, 560 g/ha",[11]; 560 g dicamba equivalent per hectare,33%
same,Dark Control % dicamba,[12]; no illumination,8%
same,"Conversion to dicamba, 1 day","[12]; simulated sunlight, 1 day",17%
same,"Conversion to dicamba, 2 days","[12]; simulated sunlight, 2 days",19%
same,"Conversion to dicamba, 3 days","[12]; simulated sunlight, 3 days",20%
same,"Conversion to dicamba, 5 days","[12]; simulated sunlight, 5 days",24%
same,"Conversion to dicamba, 7 days","[12]; simulated sunlight, 7 days",28%
same,"Conversion to dicamba, 11 days","[12]; simulated sunlight, 11 days",32%
same,"Conversion to dicamba, 13 days","[12]; simulated sunlight, 13 days",31%
same,"Conversion to dicamba, 15 days","[12]; simulated sunlight, 15 days",32%
same,"Conversion to dicamba, 19 days","[12]; simulated sunlight, 19 days",33%
same,"control of a number of broadleaf weeds in field testing, in words",[9],proven effective
"COc1c(Cl)ccc(Cl)c1C(=O)OCCOCc1ccccc1[N+](=O)[O-] [Ester 4, 2-(2-Nitrobenzoxy)Ethanol Ester of Dicamba]","photolysis / photo-release of dicamba, in words",[1],the rate of photolysis decreases
same,"% Control of velvetleaf, 140 g/ha",[2],32%
same,"% Control of velvetleaf, 280 g/ha",[2],52%
same,"% Control of velvetleaf, 420 g/ha",[2],50%
same,"% Control of velvetleaf, 560 g/ha",[2],51%
